Assay results published in ChEMBL document CHEMBL5303763, “Data for DCP probe BI-3802” (2023).
Active and inactive are the calls of the source. The rule behind the calls is not given here.

Columns and labels:
[1] = target: Prostaglandin G/H synthase 1 (Homo sapiens) (UniProt P23219); assay: COX-1 Eurofins SafetyScreen44 (BI); conditions: Compound concentration 10.0 uM
[2] = target: T1, 5-hydroxytryptamine receptor 1A (Homo sapiens) (UniProt P08908); assay: 5HT1A/H Eurofins SafetyScreen44 (BI); conditions: Compound concentration 10.0 uM
T1 sequence (whole entry): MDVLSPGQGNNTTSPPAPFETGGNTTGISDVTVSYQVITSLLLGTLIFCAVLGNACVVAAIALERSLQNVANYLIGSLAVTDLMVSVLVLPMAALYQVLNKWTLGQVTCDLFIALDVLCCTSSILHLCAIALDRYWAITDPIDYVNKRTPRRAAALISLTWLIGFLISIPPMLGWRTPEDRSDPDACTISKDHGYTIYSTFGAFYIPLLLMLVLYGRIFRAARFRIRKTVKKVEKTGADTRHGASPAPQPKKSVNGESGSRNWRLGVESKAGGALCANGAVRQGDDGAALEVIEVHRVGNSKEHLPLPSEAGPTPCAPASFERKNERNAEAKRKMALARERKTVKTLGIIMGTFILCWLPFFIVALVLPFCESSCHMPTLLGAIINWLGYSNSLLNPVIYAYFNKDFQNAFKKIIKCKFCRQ

[3] = target: Adenosine receptor A2a (Homo sapiens) (UniProt P29274); assay: A2A/H Eurofins SafetyScreen44 (BI); conditions: filed as antagonist, Compound concentration 10.0 uM
Sequence of Adenosine receptor A2a (Homo sapiens) (P29274 whole entry): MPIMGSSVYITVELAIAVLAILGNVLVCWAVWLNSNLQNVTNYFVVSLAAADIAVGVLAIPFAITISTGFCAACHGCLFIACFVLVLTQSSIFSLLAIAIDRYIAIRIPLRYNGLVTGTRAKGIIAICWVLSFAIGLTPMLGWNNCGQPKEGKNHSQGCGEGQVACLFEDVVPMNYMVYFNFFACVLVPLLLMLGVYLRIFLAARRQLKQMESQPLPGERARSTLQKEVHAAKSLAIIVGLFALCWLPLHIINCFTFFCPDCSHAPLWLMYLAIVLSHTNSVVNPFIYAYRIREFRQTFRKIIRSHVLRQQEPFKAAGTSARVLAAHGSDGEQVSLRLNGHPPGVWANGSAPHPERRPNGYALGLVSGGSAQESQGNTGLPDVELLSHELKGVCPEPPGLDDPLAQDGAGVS

[4] = target: Alpha-1A adrenergic receptor (Homo sapiens) (UniProt P35348); assay: ALPHA1AH_ANTAG Eurofins SafetyScreen44 (BI); conditions: filed as antagonist, Compound concentration 10.0 uM
Sequence of Alpha-1A adrenergic receptor (Homo sapiens) (P35348 whole entry): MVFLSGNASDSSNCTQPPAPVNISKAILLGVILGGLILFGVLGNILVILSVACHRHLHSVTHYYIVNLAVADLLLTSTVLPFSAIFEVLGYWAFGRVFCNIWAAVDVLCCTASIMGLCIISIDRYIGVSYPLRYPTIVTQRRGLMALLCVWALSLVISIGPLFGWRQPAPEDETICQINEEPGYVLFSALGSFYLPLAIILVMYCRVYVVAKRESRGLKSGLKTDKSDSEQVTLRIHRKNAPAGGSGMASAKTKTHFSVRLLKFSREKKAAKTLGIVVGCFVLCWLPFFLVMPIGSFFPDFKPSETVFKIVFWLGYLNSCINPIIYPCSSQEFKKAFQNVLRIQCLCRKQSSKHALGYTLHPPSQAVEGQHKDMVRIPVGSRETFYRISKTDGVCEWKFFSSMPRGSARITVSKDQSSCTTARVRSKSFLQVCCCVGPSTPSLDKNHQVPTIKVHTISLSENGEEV

[5] = target: T2, Alpha-2A adrenergic receptor (Homo sapiens) (UniProt P08913); assay: ALPHA2A/HU Eurofins SafetyScreen44 (BI); conditions: Compound concentration 10.0 uM
T2 sequence (whole entry): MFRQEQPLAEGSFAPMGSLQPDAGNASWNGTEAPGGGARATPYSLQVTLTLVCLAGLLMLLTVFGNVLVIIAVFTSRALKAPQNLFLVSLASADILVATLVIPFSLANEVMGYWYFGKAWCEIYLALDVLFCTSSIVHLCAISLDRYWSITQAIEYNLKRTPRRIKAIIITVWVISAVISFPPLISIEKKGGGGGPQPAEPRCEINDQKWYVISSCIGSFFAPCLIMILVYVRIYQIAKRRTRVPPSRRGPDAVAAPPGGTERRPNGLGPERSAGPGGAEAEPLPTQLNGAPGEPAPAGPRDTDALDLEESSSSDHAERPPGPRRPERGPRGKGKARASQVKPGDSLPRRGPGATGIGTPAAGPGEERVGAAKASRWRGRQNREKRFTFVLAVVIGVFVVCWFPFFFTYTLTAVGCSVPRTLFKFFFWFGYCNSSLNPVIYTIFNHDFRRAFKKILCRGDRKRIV

[6] = target: D(1A) dopamine receptor (Homo sapiens) (UniProt P21728); assay: D1/H Eurofins SafetyScreen44 (BI); conditions: filed as antagonist, Compound concentration 10.0 uM
Sequence of D(1A) dopamine receptor (Homo sapiens) (P21728 whole entry): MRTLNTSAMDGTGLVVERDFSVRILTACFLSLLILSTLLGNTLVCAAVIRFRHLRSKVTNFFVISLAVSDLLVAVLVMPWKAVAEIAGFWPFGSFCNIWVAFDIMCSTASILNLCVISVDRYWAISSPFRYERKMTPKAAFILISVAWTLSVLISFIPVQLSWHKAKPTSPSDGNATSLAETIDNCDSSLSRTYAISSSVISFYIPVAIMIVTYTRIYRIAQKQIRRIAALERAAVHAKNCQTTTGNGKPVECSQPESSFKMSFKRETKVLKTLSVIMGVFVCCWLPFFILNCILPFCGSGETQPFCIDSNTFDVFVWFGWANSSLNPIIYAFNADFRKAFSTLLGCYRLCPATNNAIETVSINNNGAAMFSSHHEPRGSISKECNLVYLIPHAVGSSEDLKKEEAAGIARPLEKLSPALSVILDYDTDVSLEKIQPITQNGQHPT

[7] = target: Muscarinic acetylcholine receptor M1 (Homo sapiens) (UniProt P11229); assay: M1/H Eurofins SafetyScreen44 (BI); conditions: Compound concentration 10.0 uM
Sequence of Muscarinic acetylcholine receptor M1 (Homo sapiens) (P11229 whole entry): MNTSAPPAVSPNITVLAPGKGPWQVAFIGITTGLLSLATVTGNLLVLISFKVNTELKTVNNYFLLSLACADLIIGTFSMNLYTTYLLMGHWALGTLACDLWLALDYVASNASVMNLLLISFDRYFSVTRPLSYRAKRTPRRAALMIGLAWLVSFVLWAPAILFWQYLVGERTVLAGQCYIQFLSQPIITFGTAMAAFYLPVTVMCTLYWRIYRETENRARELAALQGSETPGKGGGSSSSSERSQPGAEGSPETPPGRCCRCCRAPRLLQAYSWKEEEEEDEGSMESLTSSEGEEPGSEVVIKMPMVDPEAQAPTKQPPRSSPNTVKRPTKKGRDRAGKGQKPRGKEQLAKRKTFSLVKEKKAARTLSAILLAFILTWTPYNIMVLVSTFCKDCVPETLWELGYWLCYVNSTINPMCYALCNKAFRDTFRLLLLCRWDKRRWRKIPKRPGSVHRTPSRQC

[8] = target: T3, Muscarinic acetylcholine receptor M2 (Homo sapiens) (UniProt P08172); assay: M2/H Eurofins SafetyScreen44 (BI); conditions: filed as antagonist, Compound concentration 10.0 uM
T3 sequence (whole entry): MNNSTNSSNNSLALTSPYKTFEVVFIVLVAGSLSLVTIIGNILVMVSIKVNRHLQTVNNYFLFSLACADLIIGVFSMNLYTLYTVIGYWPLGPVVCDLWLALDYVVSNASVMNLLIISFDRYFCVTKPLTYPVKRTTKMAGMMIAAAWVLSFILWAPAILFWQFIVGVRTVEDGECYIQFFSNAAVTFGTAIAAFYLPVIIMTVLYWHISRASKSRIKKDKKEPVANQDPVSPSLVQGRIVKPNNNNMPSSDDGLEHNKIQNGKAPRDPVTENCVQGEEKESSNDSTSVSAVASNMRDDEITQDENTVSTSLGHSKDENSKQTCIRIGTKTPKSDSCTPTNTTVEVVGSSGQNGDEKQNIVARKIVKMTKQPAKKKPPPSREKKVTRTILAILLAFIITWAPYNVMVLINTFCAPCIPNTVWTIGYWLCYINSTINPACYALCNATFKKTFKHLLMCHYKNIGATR

[9] = target: MAO-A (Amine oxidase [flavin-containing] A) (Rattus norvegicus, UniProt P21396); assay: MAO-A_ANTAG Eurofins SafetyScreen44 (BI); set-up: scale not given: the % may be the effect or the level left; conditions: compound concentration 10 uM, read-out: % Ctrl
Sequence of MAO-A (Amine oxidase [flavin-containing] A) (P21396 whole entry): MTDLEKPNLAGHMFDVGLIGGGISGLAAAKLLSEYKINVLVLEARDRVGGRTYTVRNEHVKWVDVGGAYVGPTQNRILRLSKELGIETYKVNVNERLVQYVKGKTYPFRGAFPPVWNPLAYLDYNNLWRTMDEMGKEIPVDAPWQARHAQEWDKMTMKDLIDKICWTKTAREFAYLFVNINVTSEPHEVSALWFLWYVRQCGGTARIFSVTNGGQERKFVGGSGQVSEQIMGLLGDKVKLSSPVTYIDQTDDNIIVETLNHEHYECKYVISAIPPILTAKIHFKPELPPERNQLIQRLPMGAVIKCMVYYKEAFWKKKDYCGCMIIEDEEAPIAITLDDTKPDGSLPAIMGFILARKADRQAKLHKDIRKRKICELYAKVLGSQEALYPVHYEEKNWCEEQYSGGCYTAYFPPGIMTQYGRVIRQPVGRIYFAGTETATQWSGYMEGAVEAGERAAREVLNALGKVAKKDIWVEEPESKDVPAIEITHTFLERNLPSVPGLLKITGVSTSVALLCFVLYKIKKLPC

[10] = target: Sodium-dependent noradrenaline transporter (Homo sapiens) (UniProt P23975); assay: NEUP/H Eurofins SafetyScreen44 (BI); conditions: Compound concentration 10.0 uM
[11] = target: cGMP-inhibited 3',5'-cyclic phosphodiesterase 3A (Homo sapiens) (UniProt Q14432); assay: PDE3A Eurofins SafetyScreen44 (BI); conditions: Compound concentration 10.0 uM
[12] = target: T4, B-cell lymphoma 6 protein (Homo sapiens, UniProt P41182); assay: SPR (BCL6), Ontario institute for cancer research
[13] = target: Cannabinoid receptor 1 (Homo sapiens) (UniProt P21554); assay: CB1(HU)_AGON Eurofins SafetyScreen44 (BI); conditions: filed as agonist; Compound concentration 10.0 uM
[14] = target: Kappa-type opioid receptor (Homo sapiens) (UniProt P41145); assay: KAPPA(KOP)_HU Eurofins SafetyScreen44 (BI); conditions: Compound concentration 10.0 uM
[15] = target: T4, B-cell lymphoma 6 protein; assay: BCL6::NCOR LUMIER in cells
[16] = target: Cannabinoid receptor 1 (Homo sapiens) (UniProt P21554); assay: CB1/CENTR/H Eurofins SafetyScreen44 (BI); conditions: Compound concentration 10.0 uM
[17] = target: Insulin receptor (Homo sapiens) (UniProt P06213); assay: INSR Invitrogen Lab (UK) kinase screen (BI); conditions: Compound concentration 1.0 uM
[18] = target: Dual specificity mitogen-activated protein kinase kinase 6 (Homo sapiens) (UniProt P52564); assay: MAP2K6 Invitrogen Lab (UK) kinase screen (BI); conditions: Compound concentration 1.0 uM
[19] = target: Mitogen-activated protein kinase 8 (Homo sapiens) (UniProt P45983); assay: MAPK8 Invitrogen Lab (UK) kinase screen (BI); conditions: Compound concentration 1.0 uM
[20] = target: RAF proto-oncogene serine/threonine-protein kinase (Homo sapiens) (UniProt P04049); assay: RAF1 Invitrogen Lab (UK) kinase screen (BI); conditions: Compound concentration 1.0 uM
[21] = target: Ribosomal protein S6 kinase alpha-4 (Homo sapiens) (UniProt O75676); assay: RPS6KA4 Invitrogen Lab (UK) kinase screen (BI); conditions: Compound concentration 1.0 uM
[22] = target: D(2) dopamine receptor (Homo sapiens) (UniProt P14416); conditions: Compound concentration 10.0 uM
Sequence of D(2) dopamine receptor (Homo sapiens) (P14416 whole entry): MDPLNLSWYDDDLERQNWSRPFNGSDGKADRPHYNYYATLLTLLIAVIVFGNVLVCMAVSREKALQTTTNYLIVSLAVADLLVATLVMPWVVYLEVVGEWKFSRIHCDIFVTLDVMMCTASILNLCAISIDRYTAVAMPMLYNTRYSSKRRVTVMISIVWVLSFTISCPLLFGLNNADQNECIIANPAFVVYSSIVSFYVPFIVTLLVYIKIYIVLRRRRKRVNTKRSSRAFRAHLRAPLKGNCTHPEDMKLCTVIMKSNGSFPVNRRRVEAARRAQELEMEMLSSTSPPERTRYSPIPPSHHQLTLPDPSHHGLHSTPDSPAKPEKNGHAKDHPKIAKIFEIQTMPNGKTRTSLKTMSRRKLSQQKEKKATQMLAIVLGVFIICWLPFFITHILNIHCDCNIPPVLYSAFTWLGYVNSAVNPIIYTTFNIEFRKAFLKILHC

[23] = target: D(3) dopamine receptor (Homo sapiens) (UniProt P35462); conditions: Compound concentration 10.0 uM
[24] = target: Sodium-dependent dopamine transporter (Homo sapiens) (UniProt Q01959); conditions: Compound concentration 10.0 uM
Sequence of Sodium-dependent dopamine transporter (Homo sapiens) (Q01959 whole entry): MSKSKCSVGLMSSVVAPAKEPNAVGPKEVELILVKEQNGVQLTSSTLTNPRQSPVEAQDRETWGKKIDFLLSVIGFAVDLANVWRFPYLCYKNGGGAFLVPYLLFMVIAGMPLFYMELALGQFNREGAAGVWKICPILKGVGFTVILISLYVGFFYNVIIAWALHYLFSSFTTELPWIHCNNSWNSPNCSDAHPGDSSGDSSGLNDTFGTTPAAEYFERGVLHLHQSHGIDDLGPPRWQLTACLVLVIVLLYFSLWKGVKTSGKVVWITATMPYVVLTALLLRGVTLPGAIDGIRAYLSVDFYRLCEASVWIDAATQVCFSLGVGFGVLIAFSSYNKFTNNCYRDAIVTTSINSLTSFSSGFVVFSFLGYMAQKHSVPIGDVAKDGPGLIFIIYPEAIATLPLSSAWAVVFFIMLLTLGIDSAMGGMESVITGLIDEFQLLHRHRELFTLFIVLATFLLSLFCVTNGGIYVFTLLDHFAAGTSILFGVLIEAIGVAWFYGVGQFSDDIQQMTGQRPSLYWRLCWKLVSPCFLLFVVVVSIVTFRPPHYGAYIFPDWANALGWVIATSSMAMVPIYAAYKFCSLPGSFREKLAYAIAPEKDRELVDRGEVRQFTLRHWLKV

[25] = target: Delta-type opioid receptor (Homo sapiens) (UniProt P41143); conditions: Compound concentration 10.0 uM
Sequence of Delta-type opioid receptor (Homo sapiens) (P41143 whole entry): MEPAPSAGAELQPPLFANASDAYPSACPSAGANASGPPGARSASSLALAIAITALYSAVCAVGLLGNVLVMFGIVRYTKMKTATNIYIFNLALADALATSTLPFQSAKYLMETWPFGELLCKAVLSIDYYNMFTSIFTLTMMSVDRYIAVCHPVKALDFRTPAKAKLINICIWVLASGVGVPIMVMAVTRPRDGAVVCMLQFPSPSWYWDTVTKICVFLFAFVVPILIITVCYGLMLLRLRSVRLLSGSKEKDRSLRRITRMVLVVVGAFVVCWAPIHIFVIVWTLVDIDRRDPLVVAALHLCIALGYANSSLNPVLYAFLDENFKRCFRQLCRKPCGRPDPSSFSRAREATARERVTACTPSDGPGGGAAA

[26] = target: Muscarinic acetylcholine receptor M4 (Homo sapiens) (UniProt P08173); conditions: Compound concentration 10.0 uM
Sequence of Muscarinic acetylcholine receptor M4 (Homo sapiens) (P08173 whole entry): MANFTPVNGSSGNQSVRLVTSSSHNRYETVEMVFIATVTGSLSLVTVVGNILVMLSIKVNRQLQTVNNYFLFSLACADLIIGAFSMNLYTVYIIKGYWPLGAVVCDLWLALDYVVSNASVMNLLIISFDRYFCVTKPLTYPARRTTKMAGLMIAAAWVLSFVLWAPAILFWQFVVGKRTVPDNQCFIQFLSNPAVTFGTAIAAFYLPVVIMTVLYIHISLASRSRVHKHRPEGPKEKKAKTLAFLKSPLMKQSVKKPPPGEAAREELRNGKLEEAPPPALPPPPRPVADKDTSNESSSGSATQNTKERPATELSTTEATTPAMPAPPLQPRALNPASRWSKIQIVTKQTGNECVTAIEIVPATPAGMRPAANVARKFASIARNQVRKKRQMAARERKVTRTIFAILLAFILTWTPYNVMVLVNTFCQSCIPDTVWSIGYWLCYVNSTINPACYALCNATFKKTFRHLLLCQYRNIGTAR

[27] = target: Mitogen-activated protein kinase 3 (Homo sapiens) (UniProt P27361); assay: MAPK3 Invitrogen Lab (UK) kinase screen (BI); conditions: Compound concentration 1.0 uM

Sequence of Prostaglandin G/H synthase 1 (Homo sapiens) (P23219 whole entry): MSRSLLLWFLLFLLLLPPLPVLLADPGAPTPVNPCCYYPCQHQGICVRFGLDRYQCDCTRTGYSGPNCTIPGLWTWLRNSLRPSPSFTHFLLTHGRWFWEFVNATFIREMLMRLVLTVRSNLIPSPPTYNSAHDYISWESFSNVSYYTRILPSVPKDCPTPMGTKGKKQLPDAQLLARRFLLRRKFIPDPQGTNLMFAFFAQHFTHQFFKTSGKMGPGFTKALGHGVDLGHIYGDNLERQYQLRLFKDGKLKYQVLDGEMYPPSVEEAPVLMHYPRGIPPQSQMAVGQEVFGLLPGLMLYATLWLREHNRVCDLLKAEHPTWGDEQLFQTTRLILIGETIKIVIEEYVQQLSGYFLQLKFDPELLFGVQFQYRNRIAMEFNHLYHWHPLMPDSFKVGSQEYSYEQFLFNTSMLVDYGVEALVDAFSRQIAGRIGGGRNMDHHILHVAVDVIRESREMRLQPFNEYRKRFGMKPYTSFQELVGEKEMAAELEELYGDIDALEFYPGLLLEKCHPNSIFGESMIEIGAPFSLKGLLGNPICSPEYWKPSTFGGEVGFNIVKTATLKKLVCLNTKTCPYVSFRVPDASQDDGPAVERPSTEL

Compound | residual activity [1] [%] | residual activity [2] [%] | residual activity [3] [%] | residual activity [4] [%] | residual activity [5] [%] | residual activity [6] [%] | residual activity [7] [%] | residual activity [8] [%] | activity at 10 µM [9] | residual activity [10] [%] | residual activity [11] [%] | also measured
C[C@@H]1C[C@H](C)CN(c2ncc(Cl)c(Nc3ccc4c(c3)cc(OC(C)(C)C(=O)O)c(=O)n4C)n2)C1 | 82 | 97 | 107 | 99 | 104 | 92 | 128 | 111 | 96% (not active) | 102 | 99 | Kd [12]: 1410 nM (not active); residual activity [13]: 95%; residual activity [14]: 86%
CNC(=O)COc1cc2cc(Nc3nc(N4C[C@H](C)C[C@H](C)C4)ncc3Cl)ccc2n(C)c1=O | 90 | 90 | 92 | 110 | 111 | 106 | 93 | 102 | 89% (not active) | 99 | 95 | IC50 [15]: 43 nM (active); residual activity [16]: 84%; residual activity [17]: 100%; residual activity [18]: 84%; residual activity [19]: 120%; residual activity [20]: 94%; residual activity [21]: 99%; inhibition [22]: -8.96%; inhibition [23]: 11.6%; inhibition [24]: 12.6%; inhibition [25]: 13.3%; inhibition [26]: -1.45%; residual activity [27]: 105%
